System: OMP-OV38 tumors
Assay: Histology of treated OMP-OV38 tumors
Format: in vivo, NOD/SCID mice
Conditions: paclitaxel alone; data not shown
Procedure: The treated OMP-OV38 tumors were analyzed by histology.

CC(=O)O[C@H]1C(=O)[C@@]2(C)[C@H]([C@H](OC(=O)c3ccccc3)[C@]3(O)C[C@H](OC(=O)[C@H](O)[C@@H](NC(=O)c4ccccc4)c4ccccc4)C(C)=C1C3(C)C)[C@]1(OC(C)=O)CO[C@@H]1C[C@@H]2O [paclitaxel]
histology of the tumors: did not show these effects

Source: patent US20170247465A1, “COMBINATION THERAPY FOR TREATMENT OF CANCER” (OncoMed Pharmaceuticals, Inc., priority 2014, published 2017)
